Measurements from US20040232089A1, “Biocidal compounds for treating water” (VANETTA S.p.A., priority 2003, published 2004).

Tests used:
[1] = system: Bacillus subtilis ATCC 10774; assay: Disk diffusion test (Kirby-Bauer); format: cell-based; conditions: 100 μg MNB disk, 24 hours in the dark
Experimental: (§1) a) Kirby-Bauer assay was carried out after 24 hours in the dark.
(§2) In the disk diffusion susceptibility test, paper disks containing known amounts of MNB are placed on the surface of an agar plate that has been inoculated confluently with a standardized suspension of an indicator bacterial strain. The antimicrobial agent diffuses into the medium causing a zone of inhibition of growth of the strain around the disk corresponding to the susceptibility of the strain to that agent. Interpretative zone diameters have been established to permit classifying an isolate as belonging to the susceptible, intermediate resistance, or resistant categories of susceptibilities to an antimicrobial agent.
(§3) The disk diffusion method on agar plates was used to assess the biocide efficacy of a single concentration of MNB ([…]) against four aerobic quality control strains (Pseudomonas aeruginosa ATCC10145, Pseudomonas elongata NCIMB 1141, Bacillus subtilis ATCC 10774 and Staphylococcus aureus ATCC 25923).
(§4) Test results are summarised in Table 5 and represent the size of the inhibition halos in millimetres after contact with 100 μg MNB (Disk diffusion method).

[2] = system: Pseudomonas aeruginosa ATCC 10145; assay: Disk diffusion test (Kirby-Bauer); format: cell-based; conditions: 100 μg MNB disk, 24 hours in the dark
Experimental: as §1, §2, §3, §4

[3] = system: Pseudomonas elongata NCIMB 1141; assay: Disk diffusion test (Kirby-Bauer); format: cell-based; conditions: 100 μg MNB disk, 24 hours in the dark
Experimental: as §1, §2, §3, §4

[4] = system: Staphylococcus aureus ATCC 25923; assay: Disk diffusion test (Kirby-Bauer); format: cell-based; conditions: 100 μg MNB disk, 24 hours in the dark
Experimental: as §1, §2, §3, §4

[5] = system: Balanus amphitrite nauplii; assay: Barnacle efficacy test; format: in vivo
Experimental: This efficacy tests was carried out by using Balanus amphitrite nauplii (Crustacea: Cirripedia). Specimens of this organism are collected in nature, and then maintained and reared in our laboratories, following a standard methodology. Adult organisms regularly produce larvae at the second naupliar stage, characterized by the typical triangular carapace, with a shield shape. […] Stage II nauplii have been used; immediately after their emission from adults larvae were divided and put in a beaker with […] filtered natural sea-water.

Tigriopus fulvus = assay: Copepods efficacy test; format: in vivo; conditions: Tigriopus fulvus nauplii
Experimental: For that, efficacy test was carried out by using Tigriopus fulvus, it is a shallow-water marine species (Crustacea, Copepoda, Harpactico.da) characterized by […], all variously deep-orange coloured: five nauplius substages and five copepodid substages. Nauplii have a subcircular shape, are characterized by a single red eye, and develop within 6 to 7 days. Copepods are recognisable because of their abdominal segment formation, although the last substage is difficult to distinguish from the adult female at the end of the 7-day development period. Adult sizes range from 0.8 to 1.0 mm for males and from 1.0 to 1.2 mm for females. Sexual dimorphism is detectable only by the pincer shape of antenna 1, whereas ovigerous females can quickly be recognized because of their large egg sacs. T. fulvus is a vector for the transport of Vibrio spp; it is well documented that the persistence of V. cholerae in the aquatic environment is facilitated by its ability to colonize various substrates, including zooplankton surfaces (i.e., copepods).
Copepods, sampled in their natural habitat, have been moved through suitable containers to the laboratory, where they were subjected to a specific treatment. They were first filtered through a […] mesh, then washed with sterile sea-water and transferred to small 3 litres aquaria, with natural filtered (0.22 μm) sea water, T=20+0,5° C. Copepods were fed with microalgae (Chlorella spp, Tetraselmis suecica) and commercial yeast (Saccharomices spp). After the acclimatization period (one month), about 500 females were chosen and separated. The naupliar stage was then used for the efficacy test. […] Nauplii were used 24 hours after their hatching, multiwell plates (25 wells) were used for these tests, about 15 individuals for each well. Each concentration was performed in six replicates, plates were kept at dark, at 20° C.

[6] = system: Mytilus galloprovincialis; assay: Mussels efficacy test (trocophora and veliger larvae); format: in vivo; conditions: after 24 hours
Experimental: Mussels are bivalve shellfish that grow quickly and profusely. They have two identical, convex shells. These shells are elongate, triangular and joined by a rubbery hinge ligament on the upper side. There are three main periods in the Mytilus galloprovincialis life cycle: the larval, juvenile, and adult stages. The larvae are planktonic (float in water column) during their initial three life stages: trochophore, veliger, and pediveliger.
Efficacy tests were carried out by using two larval stages of this organism: trocophora and veliger. Adult specimens of this organism were collected and transferred into our laboratories, where they were cleaned from debris, and put in single 200 ml beakers, with […] filtered natural sea-water. Through a thermal shock, sexual products (eggs and sperma) were obtained. Fertilized eggs (about 300.000) were filtered and put in 1000 ml beakers, with […] filtered natural sea-water. Cultures were maintained at 20° C., with a photoperiod of 16:8 light:dark. After the first 24 hours post-fertilization, trocophora stage is present. Larvae were reared and fed with a planktonic alga, Pavlova lutheri, every day they were filtered, and water was changed. Veliger stage is reached about 48-72 hours after fertilization.

[7] = Hydrolysis test carried out in the dark; format: physicochemical
Text: From the hydrolysis test carried out in the dark, MNB and MPB appear to be readily degradable at a pH compatible with environmental conditions.

**Q.** Which results are given for CC1(S(=O)(=O)O)CC(=O)c2ccccc2C1=O.NC(=O)c1cccnc1 (stereo not shown) [MNB, menadione nicotinamide bisulphite]?
**A.** size of the inhibition halos [1]: 0 mm; size of the inhibition halos [2]: 0 mm; size of the inhibition halos [3]: 20 mm; size of the inhibition halos [4]: 20 mm; LC50 ([5]; 24 hours): 0.228 µg/mL; LC50 ([5]; 48 hours): 0.222 µg/mL; LC50 (Tigriopus fulvus; 24 hours): 0.156 µg/mL; LC50 (Tigriopus fulvus; 48 hours): 0.071 µg/mL; LC50 (Tigriopus fulvus; 72 hours): 0.039 µg/mL; LC50 ([6]; trocophorae): 0.108 µg/mL; LC50 ([6]; veliger): 0.167 µg/mL; ½ LIFE (hydrolysis) ([7]; pH 6, 8, in the dark): 48 h; ½ LIFE (hydrolysis) ([7]; pH 9, in the dark): <3 h
